Results as given in PubChem BioAssay (NCI).
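48-hour exposure; five concentrations; linearly interpolated endpoints. The concentration for 50% growth inhibition is given as GI50. Definition used: TGI = concentration required for complete inhibition of growth.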

What was measured:
Test in all cases: inhibition of tumour cell growth, NCI panel, 48 h
[1] = test system: 786-0 renal
[2] = test system: A498 renal
[3] = test system: A549 NSCLC
[4] = test system: BT-549 breast
[5] = test system: CAKI-1 renal
[6] = test system: CCRF-CEM leukemia
[7] = test system: COLO 205 colon
[8] = test system: DU-145 prostate
[9] = test system: EKVX NSCLC
[10] = test system: HCC-2998 colon
[11] = test system: HCT-116 colon
[12] = test system: HCT-15 colon
[13] = test system: HOP-62 NSCLC
[14] = test system: HOP-92 NSCLC
[15] = test system: HS 578T breast
[16] = test system: HT29 colon
[17] = test system: IGROV1 ovarian
[18] = test system: K-562 leukemia
[19] = test system: KM12 colon
[20] = test system: M14 melanoma
[21] = test system: MALME-3M melanoma
[22] = test system: MCF7 breast
[23] = test system: MDA-MB-231 breast
[24] = test system: MDA-MB-435
[25] = test system: MDA-N
[26] = test system: MOLT-4 leukemia
[27] = test system: NCI-H226 lung
[28] = test system: NCI-H23 lung
[29] = test system: NCI-H460 lung
[30] = test system: NCI-H522 lung
[31] = test system: NCI/ADR-RES ovarian
[32] = test system: OVCAR-3 ovarian
[33] = test system: OVCAR-4 ovarian
[34] = test system: OVCAR-5 ovarian
[35] = test system: OVCAR-8 ovarian
[36] = test system: PC-3 prostate
[37] = test system: RPMI-8226 leukemia
[38] = test system: SF-268 CNS
[39] = test system: SF-295 CNS
[40] = test system: SF-539 CNS
[41] = test system: SK-MEL-28 melanoma
[42] = test system: SK-MEL-5 melanoma
[43] = test system: SK-OV-3 ovarian
[44] = test system: SN12C renal
[45] = test system: SNB-19 CNS
[46] = test system: SNB-75 CNS
[47] = test system: SW-620 colon
[48] = test system: T-47D breast
[49] = test system: U251 CNS
[50] = test system: UACC-257 melanoma
[51] = test system: UACC-62 melanoma
[52] = test system: UO-31 renal
[53] = test system: ACHN renal
[54] = test system: LOX IMVI melanoma
[55] = test system: RXF 393 renal
[56] = test system: SK-MEL-2 melanoma
[57] = test system: TK-10 renal
[58] = test system: HL-60(TB) leukemia

CCOC(=O)[C@H]1O[C@@H]1C(=O)NC(CC(C)C)C(=O)NCCC(C)C (stereo partly specified) gave a TGI [1] of over 100 µM, a TGI [2] of over 100 µM and a TGI [3] of over 100 µM. It also gave a TGI [4] of over 100 µM, a TGI [5] of over 100 µM and a TGI [6] of over 100 µM. It also gave a TGI [7] of over 100 µM, a TGI [8] of over 100 µM and a TGI [9] of over 100 µM. It also gave a TGI [10] of over 100 µM, a TGI [11] of over 100 µM and a TGI [12] of over 100 µM. It also gave a TGI [13] of over 100 µM, a TGI [14] of over 100 µM and a TGI [15] of over 100 µM. The TGI [16] was over 100 µM, the TGI [17] was over 100 µM and the TGI [18] was over 100 µM. It also gave a TGI [19] of over 100 µM, a TGI [20] of over 100 µM and a TGI [21] of over 100 µM. The TGI [22] was over 100 µM, the TGI [23] was over 100 µM and the TGI [24] was over 100 µM. For the same molecule, the TGI [25] was over 100 µM, the TGI [26] was over 100 µM and the TGI [27] was over 100 µM. It also gave a TGI [28] of over 100 µM, a TGI [29] of over 100 µM and a TGI [30] of over 100 µM. The TGI [31] was over 100 µM, the TGI [32] was over 100 µM and the TGI [33] was over 100 µM. It also gave a TGI [34] of over 100 µM, a TGI [35] of over 100 µM and a TGI [36] of over 100 µM. It also gave a TGI [37] of over 100 µM, a TGI [38] of over 100 µM and a TGI [39] of over 100 µM. The TGI [40] was over 100 µM, the TGI [41] was over 100 µM and the TGI [42] was over 100 µM. The TGI [43] was over 100 µM, the TGI [44] was over 100 µM and the TGI [45] was over 100 µM. For the same molecule, the TGI [46] was over 100 µM, the TGI [47] was over 100 µM and the TGI [48] was over 100 µM. For the same molecule, the TGI [49] was over 100 µM, the TGI [50] was over 100 µM and the TGI [51] was over 100 µM. The TGI [52] was over 100 µM.
With O=C1C=CC(=O)C(CNc2ccc(C(=O)OC34CC5CC(CC(C5)C3)C4)cc2)=C1Br the TGI [1] was 28.3 µM, the TGI [2] was 33.1 µM and the TGI [3] was 49.3 µM. For the same molecule, the TGI [53] was 28.4 µM, the TGI [4] was 20.5 µM and the TGI [5] was 12.5 µM. It also gave a TGI [6] of 7.41 µM, a TGI [7] of 24.1 µM and a TGI [8] of 94.8 µM. It also gave a TGI [9] of 20.5 µM, a TGI [10] of 28.3 µM and a TGI [11] of 27.1 µM. For the same molecule, the TGI [12] was 21.4 µM, the TGI [13] was 62.2 µM and the TGI [14] was 12.3 µM. The TGI [15] was 27.2 µM, the TGI [16] was 16.8 µM and the TGI [17] was 15.6 µM. It also gave a TGI [18] of 32.7 µM, a TGI [19] of 19.7 µM and a TGI [54] of 23.4 µM. The TGI [20] was 60 µM, the TGI [21] was 15.5 µM and the TGI [22] was 48.1 µM. For the same molecule, the TGI [23] was 24.3 µM, the TGI [24] was 65.5 µM and the TGI [25] was 33 µM. For the same molecule, the TGI [26] was 25.5 µM, the TGI [27] was 32.4 µM and the TGI [28] was 23.9 µM. It also gave a TGI [29] of 29.4 µM, a TGI [30] of 1.44 µM and a TGI [31] of 18.4 µM. The TGI [32] was 39.4 µM, the TGI [33] was 22.6 µM and the TGI [34] was 38 µM. The TGI [35] was 23.9 µM, the TGI [36] was 19 µM and the TGI [37] was 33.4 µM. For the same molecule, the TGI [55] was 17.5 µM, the TGI [38] was 27.4 µM and the TGI [39] was 33.5 µM. It also gave a TGI [40] of 5.6 µM, a TGI [56] of 38.2 µM and a TGI [42] of 22 µM. The TGI [43] was 34.2 µM, the TGI [44] was 34.1 µM and the TGI [45] was 35.4 µM. It also gave a TGI [46] of 19.7 µM, a TGI [47] of 68.1 µM and a TGI [48] of 18.5 µM. It also gave a TGI [57] of 28.6 µM, a TGI [49] of 38.2 µM and a TGI [50] of 29.1 µM. For the same molecule, the TGI [51] was 21.6 µM and the TGI [52] was 21.2 µM.
With O=c1cc(-c2ccc3ccccc3c2)[nH]c2ncc(Cl)cc12 the TGI [1] was 16.8 µM, the TGI [2] was 43.1 µM and the TGI [3] was over 100 µM. It also gave a TGI [53] of over 100 µM, a TGI [4] of over 100 µM and a GI50 [5] of 7.58 µM. It also gave a TGI [5] of over 100 µM, a TGI [6] of 56.8 µM and a TGI [7] of 21.8 µM. It also gave a TGI [8] of over 100 µM, a TGI [9] of over 100 µM and a TGI [10] of over 100 µM. The GI50 [11] was 3.98 µM, the TGI [11] was over 100 µM and the TGI [12] was over 100 µM. It also gave a GI50 [58] of 1.78 µM, a TGI [58] of 3.96 µM and a TGI [13] of 29.6 µM. It also gave a TGI [14] of 38.1 µM, a TGI [15] of 70.8 µM and a TGI [16] of over 100 µM. The TGI [17] was over 100 µM, the TGI [18] was over 100 µM and the TGI [19] was over 100 µM. The TGI [54] was over 100 µM, the TGI [20] was over 100 µM and the TGI [21] was 44.1 µM. For the same molecule, the TGI [22] was over 100 µM, the TGI [23] was 56.2 µM and the GI50 [24] was 0.846 µM. It also gave a TGI [24] of 2.76 µM, a GI50 [25] of 1.55 µM and a TGI [25] of 5.45 µM. It also gave a TGI [26] of over 100 µM, a TGI [27] of over 100 µM and a TGI [28] of 57 µM. The GI50 [29] was 4.12 µM, the TGI [29] was over 100 µM and the TGI [30] was 36.8 µM. The TGI [31] was over 100 µM, the GI50 [32] was 2.65 µM and the TGI [32] was 7.81 µM. For the same molecule, the TGI [33] was over 100 µM, the TGI [34] was over 100 µM and the TGI [35] was 22.9 µM. It also gave a GI50 [36] of 3.1 µM, a TGI [36] of 29.1 µM and a TGI [37] of 24.5 µM. It also gave a TGI [38] of 34.4 µM, a GI50 [39] of 5.44 µM and a TGI [39] of 29 µM. It also gave a TGI [40] of 56.5 µM, a TGI [56] of 45.1 µM and a TGI [41] of over 100 µM. The GI50 [42] was 2.98 µM, the TGI [42] was over 100 µM and the TGI [43] was 34.4 µM. For the same molecule, the TGI [44] was over 100 µM, the TGI [45] was 51.2 µM and the TGI [46] was 9.96 µM. For the same molecule, the TGI [47] was over 100 µM, the TGI [48] was over 100 µM and the TGI [57] was 45.6 µM. It also gave a GI50 [49] of 4.74 µM, a TGI [49] of 46.1 µM and a TGI [50] of over 100 µM. It also gave a TGI [51] of over 100 µM and a TGI [52] of over 100 µM.
